Measured values reported in publication PMC9516332 (Frontiers in Oncology, 2022).
Read-outs that look alike come from different tables or passages of the source.

Experiments:
Assay in all cases: Kinase panel profiling at 1 µmol/L (MSA or IMAP), percentage inhibition
Assay type in all cases: biochemical
[1] = target: panel of 255 wild-type kinases (Homo sapiens, UniProt P11802); conditions: read-out: %-inhibition CDK4/CycD3
[2] = target: T1, panel of 255 wild-type kinases (Homo sapiens, UniProt P21709); conditions: read-out: %-inhibition at 1 µmol/L, EPHA1
T1 sequence (P21709 26-976): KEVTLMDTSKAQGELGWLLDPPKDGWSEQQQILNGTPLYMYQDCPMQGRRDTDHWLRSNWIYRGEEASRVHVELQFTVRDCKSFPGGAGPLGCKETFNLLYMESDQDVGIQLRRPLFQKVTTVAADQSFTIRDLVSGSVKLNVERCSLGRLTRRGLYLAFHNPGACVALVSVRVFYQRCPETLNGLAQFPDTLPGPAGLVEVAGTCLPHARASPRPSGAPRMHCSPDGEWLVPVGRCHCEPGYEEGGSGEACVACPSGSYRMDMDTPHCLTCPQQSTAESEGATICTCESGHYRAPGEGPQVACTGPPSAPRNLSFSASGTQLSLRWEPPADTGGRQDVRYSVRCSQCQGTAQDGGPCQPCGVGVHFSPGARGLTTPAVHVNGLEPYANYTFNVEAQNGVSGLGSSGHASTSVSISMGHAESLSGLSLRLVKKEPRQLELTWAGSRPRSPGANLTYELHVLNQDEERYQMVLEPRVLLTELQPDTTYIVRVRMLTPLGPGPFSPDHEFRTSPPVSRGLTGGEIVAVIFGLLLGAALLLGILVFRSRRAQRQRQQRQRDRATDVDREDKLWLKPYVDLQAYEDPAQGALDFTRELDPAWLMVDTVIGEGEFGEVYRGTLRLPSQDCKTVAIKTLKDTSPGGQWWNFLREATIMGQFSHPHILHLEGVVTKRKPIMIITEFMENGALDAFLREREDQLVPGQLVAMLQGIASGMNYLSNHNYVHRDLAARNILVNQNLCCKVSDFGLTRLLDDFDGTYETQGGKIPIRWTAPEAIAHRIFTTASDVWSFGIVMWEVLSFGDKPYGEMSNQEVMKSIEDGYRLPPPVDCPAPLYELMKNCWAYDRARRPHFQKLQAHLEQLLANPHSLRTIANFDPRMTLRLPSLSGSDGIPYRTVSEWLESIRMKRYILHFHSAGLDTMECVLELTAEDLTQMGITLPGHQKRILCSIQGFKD

[3] = target: T2, panel of 255 wild-type kinases (Homo sapiens, UniProt P29320); conditions: read-out: %-inhibition at 1 µmol/L, EPHA3
T2 sequence (P29320 21-983): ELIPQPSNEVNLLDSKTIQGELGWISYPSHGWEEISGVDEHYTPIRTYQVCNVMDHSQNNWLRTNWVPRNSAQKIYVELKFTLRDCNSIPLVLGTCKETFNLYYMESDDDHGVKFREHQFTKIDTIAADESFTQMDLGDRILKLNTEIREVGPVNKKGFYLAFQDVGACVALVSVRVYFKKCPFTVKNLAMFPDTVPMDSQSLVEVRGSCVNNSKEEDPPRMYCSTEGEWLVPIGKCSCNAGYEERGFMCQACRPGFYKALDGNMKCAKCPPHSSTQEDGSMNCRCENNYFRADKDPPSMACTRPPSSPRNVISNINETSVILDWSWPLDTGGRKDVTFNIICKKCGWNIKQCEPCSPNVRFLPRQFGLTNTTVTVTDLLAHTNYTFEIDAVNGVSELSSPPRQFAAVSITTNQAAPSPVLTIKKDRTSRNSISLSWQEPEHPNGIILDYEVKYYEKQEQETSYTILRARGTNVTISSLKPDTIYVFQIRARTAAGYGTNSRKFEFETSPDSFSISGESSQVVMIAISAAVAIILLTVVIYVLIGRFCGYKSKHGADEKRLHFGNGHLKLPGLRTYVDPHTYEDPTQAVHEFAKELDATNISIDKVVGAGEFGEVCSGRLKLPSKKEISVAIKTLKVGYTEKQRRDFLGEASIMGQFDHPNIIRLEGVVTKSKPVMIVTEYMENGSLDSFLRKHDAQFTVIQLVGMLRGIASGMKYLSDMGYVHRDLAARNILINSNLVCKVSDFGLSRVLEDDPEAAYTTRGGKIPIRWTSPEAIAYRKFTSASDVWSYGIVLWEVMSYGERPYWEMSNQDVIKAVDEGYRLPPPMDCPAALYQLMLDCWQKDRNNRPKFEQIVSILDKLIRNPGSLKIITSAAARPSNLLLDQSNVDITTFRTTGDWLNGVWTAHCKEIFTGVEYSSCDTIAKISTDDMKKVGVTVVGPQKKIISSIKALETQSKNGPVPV

[4] = target: panel of 255 wild-type kinases (Homo sapiens, UniProt P42684); conditions: read-out: %-inhibition ARG
[5] = target: panel of 255 wild-type kinases (Homo sapiens, UniProt P45983); conditions: read-out: %-inhibition at 1 µmol/L, JNK1
[6] = target: panel of 255 wild-type kinases (Homo sapiens, UniProt P54764); conditions: read-out: %-inhibition at 1 µmol/L, EPHA4
[7] = target: panel of 255 wild-type kinases (Homo sapiens, UniProt Q15418); conditions: read-out: %-inhibition at 1 µmol/L, RSK1
[8] = target: T3, panel of 255 wild-type kinases (Homo sapiens, UniProt Q9HBY8); conditions: read-out: %-inhibition at 1 µmol/L, SGK2
T3 sequence (Q9HBY8 1-367): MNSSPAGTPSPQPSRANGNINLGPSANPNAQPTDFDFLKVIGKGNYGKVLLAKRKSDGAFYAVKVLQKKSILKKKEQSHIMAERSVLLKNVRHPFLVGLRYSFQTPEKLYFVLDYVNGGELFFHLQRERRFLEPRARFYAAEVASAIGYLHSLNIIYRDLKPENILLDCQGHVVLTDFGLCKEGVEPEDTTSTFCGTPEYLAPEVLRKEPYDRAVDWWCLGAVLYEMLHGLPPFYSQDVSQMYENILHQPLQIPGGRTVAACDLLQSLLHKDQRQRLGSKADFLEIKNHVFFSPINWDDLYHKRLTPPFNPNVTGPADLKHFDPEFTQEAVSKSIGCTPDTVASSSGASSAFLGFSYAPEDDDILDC

[9] = CDK4/CycD3 kinase assay, 1 µmol/L single concentration
[10] = kinase EPHA1, 1 µmol/L single concentration
[11] = kinase EPHA3, 1 µmol/L single concentration
[12] = ARG kinase assay, 1 µmol/L single concentration
[13] = kinase JNK1, 1 µmol/L single concentration
[14] = kinase EPHA4, 1 µmol/L single concentration
[15] = kinase RSK1, 1 µmol/L single concentration
[16] = kinase SGK2, 1 µmol/L single concentration

inhibition at 1 µM [1, 9] [%]	inhibition at 1 µM [2, 10] [%]	inhibition at 1 µM [3, 11] [%]	inhibition at 1 µM [4, 12] [%]	inhibition at 1 µM [5, 13] [%]	inhibition at 1 µM [6, 14] [%]	inhibition at 1 µM [7, 15] [%]	inhibition at 1 µM [8, 16] [%]	Compound	inhibition at 1 µM [1] [%]	inhibition at 1 µM [2] [%]	inhibition at 1 µM [3] [%]	inhibition at 1 µM [4] [%]	inhibition at 1 µM [5] [%]	inhibition at 1 µM [6] [%]	inhibition at 1 µM [7] [%]	inhibition at 1 µM [8] [%]
-10	-7	0.475	0.877	0.533	-0.265	-0.755	-2.27	C[C@H](Nc1ncnc2nc[nH]c12)c1cc2cccc(Cl)c2c(=O)n1-c1ccccc1 [duvelisib]	–	–	–	–	–	–	–	–
–	–	–	–	–	–	–	–	CNC(=O)c1ccc(-c2cnc3ncc(Cc4ccc5ncccc5c4)n3n2)cc1F [capmatinib]	-3.55	-3.32	-9	3.29	-5.59	-2.77	1.52	-5.54
-0.745	-2.54	0.702	-0.835	-3.55	-0.0271	-3.46	-4	O=C(Nc1cnn2ccc(N3CCC[C@@H]3c3cc(F)ccc3F)nc12)N1CC[C@H](O)C1 [larotrectinib]	–	–	–	–	–	–	–	–
3.25	4	0.248	1.39	-2.59	7.56	-5.55	-0.294	Cn1cnc2c(F)c(Nc3ccc(Br)cc3F)c(C(=O)NOCCO)cc21 [binimetinib]	–	–	–	–	–	–	–	–
0.921	79	49	10	-5.39	58	51	10	COc1ccc(CN2C3CC2CN(c2ccc(-c4cc(OCC(C)(C)O)cn5ncc(C#N)c45)cn2)C3)cn1 [selpercatinib]	–	–	–	–	–	–	–	–
-10	-3.59	-0.173	3.28	-5	-5	-0.527	-2	Cc1nc(NC(=O)N2CCC[C@H]2C(N)=O)sc1-c1ccnc(C(C)(C)C(F)(F)F)c1 [alpelisib]	–	–	–	–	–	–	–	–
-2	21	-10	3.73	-3.72	-2.34	-4.66	-4	Cc1cc(Nc2ncnc3ccc(NC4=NC(C)(C)CO4)cc23)ccc1Oc1ccn2ncnc2c1 [tucatinib]	–	–	–	–	–	–	–	–
-1.85	-2.25	-8	1.6	-4.74	-2.57	-8	-5	Cn1cnc2c(F)c(Nc3ccc(Br)cc3Cl)c(C(=O)NOCCO)cc21 [selumetinib]	–	–	–	–	–	–	–	–
-0.81	79	11	40	1.07	38	4.37	-9	COc1cc2ncnc(Nc3ccc(F)c(Cl)c3)c2cc1NC(=O)/C=C/CN1CCCCC1 [dacomitinib]	–	–	–	–	–	–	–	–

Compound	inhibition at 1 µM [1, 9] [%]	inhibition at 1 µM [2, 10] [%]	inhibition at 1 µM [3, 11] [%]	inhibition at 1 µM [4, 12] [%]	inhibition at 1 µM [5, 13] [%]	inhibition at 1 µM [6, 14] [%]	inhibition at 1 µM [7, 15] [%]	inhibition at 1 µM [8, 16] [%]	inhibition at 1 µM [1] [%]	inhibition at 1 µM [2] [%]	inhibition at 1 µM [3] [%]	inhibition at 1 µM [4] [%]	inhibition at 1 µM [5] [%]	inhibition at 1 µM [6] [%]	inhibition at 1 µM [7] [%]	inhibition at 1 µM [8] [%]
COC(=O)N[C@@H](C)CNc1nccc(-c2cn(C(C)C)nc2-c2cc(Cl)cc(NS(C)(=O)=O)c2F)n1 [encorafenib]	10	5.42	4	1.69	6	10	-2	3.5	–	–	–	–	–	–	–	–
CCN1CCN(c2ccc(Nc3cc(N(C)C(=O)Nc4c(Cl)c(OC)cc(OC)c4Cl)ncn3)cc2)CC1 [infigratinib]	66	-2	-0.311	24	-3.19	0.256	-3	-8	–	–	–	–	–	–	–	–
FC(F)(F)c1ccc(CNc2ccc(Cc3c[nH]c4ncc(Cl)cc34)cn2)cn1 [pexidartinib]	-1.58	7	2.11	7	-1.87	1.65	7.43	8	–	–	–	–	–	–	–	–
CCc1nc(C(N)=O)c(Nc2ccc(N3CCC(N4CCN(C)CC4)CC3)c(OC)c2)nc1NC1CCOCC1 [gilteritinib]	46	99	30	61	29	36	54	-3.51	–	–	–	–	–	–	–	–
CCn1c(=O)c(-c2cc(NC(=O)Nc3ccccc3)c(F)cc2Br)cc2cnc(NC)cc21 [ripretinib]	-1.19	78	88	56	4	101	8	-5	–	–	–	–	–	–	–	–
CN1CCN(c2ccc(C(=O)Nc3n[nH]c4ccc(Cc5cc(F)cc(F)c5)cc34)c(NC3CCOCC3)c2)CC1 [entrectinib]	-7.43	88	30	83	-0.262	28	–	-3.18	–	–	–	–	–	–	–	–
